Data published in patent US20240398779A1, “USE OF FACTOR B INHIBITORS FOR THE TREATMENT OF AGE-RELATED MACULAR DEGENERATION” (priority 2021, published 2024).

Tests used:
AP activity = experiment: Wieslab AP assay in MAD study; assay type: in vivo, human; conditions: for inhibition of AP activity (Wieslab AP assay): sustained over 14 days of dosing
Bb = Bb level in MAD study; assay type: in vivo, human; conditions: all iptacopan cohorts
[1] = Clinical phase 2 studies in PNH, IgAN, C3G; assay type: in vivo, human
[2] = 39-week dog toxicity study, safety margins for human exposure; conditions: 39-week dog study
[3] = First in human study in healthy volunteers, single ascending dose (SAD) and multiple ascending dose (MAD)

In the case of `CCO[C@H]1CCN(Cc2c(OC)cc(C)c3[nH]ccc23)[C@H](c2ccc(C(=O)O)cc2)C1` [iptacopan], the “inhibition of AP activity (Wieslab AP assay)” value (AP activity; 100 mg b.i.d.) is reported as ≥ 80%, the “inhibition of AP activity (Wieslab AP assay)” value (AP activity; 200 mg b.i.d.) is reported as ≥ 80% and the “suppression of AP activity (Wieslab AP assay)” value (AP activity; MAD study, 10 to 200 mg b.i.d. for 2 weeks) is reported as “dose dependent suppression of AP activity”. The “Bb level decrease from the baseline” value (Bb) was 30-40%, the response rate ([1]; 200 mg b.i.d., all tested indications (PNH, IgAN, C3G)) was “highest response rate” and the proteinuria ([1]; IgAN study Part 1, 200 mg b.i.d., over 90 days) was “reduce proteinuria”. For the same compound, the “unbound systemic exposure (AUC-based) at 200 mg b.i.d. below lowest exposure with off-target testicular effects (LOAEL)” value [2] was 17.3 fold, the “deaths, SAEs, or AEs leading to study drug discontinuation” value ([3]; 102 healthy volunteers, SAD and MAD) was “No deaths, SAEs, or AEs leading to study drug discontinuation were observed” and the permeability ([3]; first in human studies) was “good permeability”. For the same compound, the solubility ([3]; first in human studies) was “high solubility”.
